According to US4241051A, “Calcitonin” (priority 1977, dated 1980):

Tested on: bPTH-stimulated resorption
Experiment: Calcitonin ear drops in 45Ca-labelled guinea pigs; 45Ca release from explanted ossicles after bPTH stimulation
Assay type: in vivo
Conditions: for antagonism by calcitonin of the bPTH-stimulated resorption (45Ca release into bathing medium): 40 hour reading
Protocol: A large dose of radio calcium (400 μCi of ^45 Ca) is administered intravenously to each of eight guinea pigs to label their skeletons. On the third, fourth and fifth days after administration of the radiocalcium each of the guinea pigs receives ear drops containing a solution of synthetic salmon calcitonin (Armour Pharmaceutical Co.) dissolved in dimethylsulphoxide (0.1 ml of solution containing 25μg of calcitonin). Four of the animals receive calcitonin to the right ear and four to the left ear, 0.1 ml of dimethylsulphoxide being given to the other ear in each case as a control.
One hour before sacrifice on the fifth day three animals from each group of four are treated intravenously with 500 MRC units of bovine parathyroid hormone (bPTH; 2000U/mg) in diluted plasma to stimulate bone resorption, the remaining animal in each group receiving diluted plasma only as a control. After sacrifice in alternation by ether anaesthesia, the ossicles of each ear of each animal are removed by the opening the temporal bone from its lower surface, remote from the external ear to which calcitonin has been applied. They are explanted onto a filter disc (Millipore HA) in a tissue culture dish containing 1 ml of the Fitton-Jackson modification of BGJ (Gibco-Biocult Ltd) with added ascorbic acid (150 μg/ml), streptomycin (5 mg/100 ml) and penicillin (5000U/100 ml), gassed with 93% air, 7% carbon dioxide. The bathing medium is withdrawn from each dish after 20, 40 and 60 hours incubation in an airtight container at 37° C. and is replaced with freshly gassed medium. After addition to 4 ml aliquots of scintillator (Packard Instagel) the samples are subjected to liquid scintillation spectrometry (Packard 2425 set to the ^14 C channel).
In a variation of the procedure described above, the calcitonin is administered in 0.1% w/v aqueous sodium dioctyl sulphosuccinate rather than in dimethyl sulphoxide in two separate experiments, the whole of the ossicles being explanted as described above in the first case and only the stapes being explanted in the second. In these two experiments some variation is made in the radiolabelling procedure, only 200 μCi of ^45 Ca being given in the first case but intraperitoneally rather than intravenously to facilitate the labelling of bone and 400 μCi of ^45 Ca being given in the second case, also intraperitoneally, but with omission of the methyl red from the BGJ culture medium as this causes considerable quenching.
A group of twenty-four guinea pigs is treated as described in Example 1 to effect labelling of their skeletons, a dose of 400 μCi of ^45 Ca being given intraperitoneally. The animals are then divided into three groups which are treated as described in Example 1 with 0.1 ml of a solution of concentration 27.8 μg/ml, 83.3 μg/ml or 250 μg/ml of synthetic salmon calcitonin in 0.1% w/v aqueous sodium dioctyl sulphosuccinate. The subsequent treatment of the animals follows that of Example 1, the methyl red being omitted from the BGJ culture medium.

For synthetic salmon calcitonin, the “level of effect on 45Ca release from explanted ossicles” value (shortened to “level of effect on 45Ca release”) (Example 2, 0.1 ml ear drops of 27.8 μg/ml in 0.1% w/v aqueous sodium dioctyl sulphosuccinate) was “little effect”, the “level of effect on 45Ca release” value (Example 2, 0.1 ml ear drops of 83.3 μg/ml in 0.1% w/v aqueous sodium dioctyl sulphosuccinate, compared with 250 μg/ml) was “very similar level of effect” and the “level of effect on 45Ca release” value (Example 2, 0.1 ml ear drops of 250 μg/ml in 0.1% w/v aqueous sodium dioctyl sulphosuccinate, compared with 83.3 μg/ml) was “very similar level of effect”. The “duration of effect after application in vivo” value (Example 2, bathing medium examined after 20, 40 and 60 hours of culture) was “effect of extended duration”, the “antagonism by calcitonin of the bPTH-stimulated resorption (45Ca release into bathing medium)” value (“antagonism by calcitonin” for short) (ear drops 0.1 ml with 25 μg calcitonin in dimethylsulphoxide, days 3-5, whole of the ossicles explanted, p<0.01) was “highly significant” and the “antagonism by calcitonin” value (ear drops with calcitonin in 0.1% w/v aqueous sodium dioctyl sulphosuccinate, only the stapes explanted, p<0.005) was “highly significant”. The “antagonism by calcitonin” value (ear drops with calcitonin in 0.1% w/v aqueous sodium dioctyl sulphosuccinate, whole of the ossicles explanted, p<0.01) was “highly significant” and the “concentration level generally required to achieve an adequate effect” value (topical composition, calcitonin with a potency of about 4500 International units per mg) was “greater than 25 micrograms per ml”.
